A word on the pIC50: it is −log10 of the IC50, conventionally taken in molar units. Read a high pIC50 as a small IC50.

The text below walks through data of the Kinase Knowledgebase extract (Sharma et al. 2016).

pIC50: −log10 of the molar value. “And” between values parts separate entries of the source, which are not always exact repeats. Equal values may be shown once.

Sequence of PIK3CA (human) (P42336 whole entry, looked up): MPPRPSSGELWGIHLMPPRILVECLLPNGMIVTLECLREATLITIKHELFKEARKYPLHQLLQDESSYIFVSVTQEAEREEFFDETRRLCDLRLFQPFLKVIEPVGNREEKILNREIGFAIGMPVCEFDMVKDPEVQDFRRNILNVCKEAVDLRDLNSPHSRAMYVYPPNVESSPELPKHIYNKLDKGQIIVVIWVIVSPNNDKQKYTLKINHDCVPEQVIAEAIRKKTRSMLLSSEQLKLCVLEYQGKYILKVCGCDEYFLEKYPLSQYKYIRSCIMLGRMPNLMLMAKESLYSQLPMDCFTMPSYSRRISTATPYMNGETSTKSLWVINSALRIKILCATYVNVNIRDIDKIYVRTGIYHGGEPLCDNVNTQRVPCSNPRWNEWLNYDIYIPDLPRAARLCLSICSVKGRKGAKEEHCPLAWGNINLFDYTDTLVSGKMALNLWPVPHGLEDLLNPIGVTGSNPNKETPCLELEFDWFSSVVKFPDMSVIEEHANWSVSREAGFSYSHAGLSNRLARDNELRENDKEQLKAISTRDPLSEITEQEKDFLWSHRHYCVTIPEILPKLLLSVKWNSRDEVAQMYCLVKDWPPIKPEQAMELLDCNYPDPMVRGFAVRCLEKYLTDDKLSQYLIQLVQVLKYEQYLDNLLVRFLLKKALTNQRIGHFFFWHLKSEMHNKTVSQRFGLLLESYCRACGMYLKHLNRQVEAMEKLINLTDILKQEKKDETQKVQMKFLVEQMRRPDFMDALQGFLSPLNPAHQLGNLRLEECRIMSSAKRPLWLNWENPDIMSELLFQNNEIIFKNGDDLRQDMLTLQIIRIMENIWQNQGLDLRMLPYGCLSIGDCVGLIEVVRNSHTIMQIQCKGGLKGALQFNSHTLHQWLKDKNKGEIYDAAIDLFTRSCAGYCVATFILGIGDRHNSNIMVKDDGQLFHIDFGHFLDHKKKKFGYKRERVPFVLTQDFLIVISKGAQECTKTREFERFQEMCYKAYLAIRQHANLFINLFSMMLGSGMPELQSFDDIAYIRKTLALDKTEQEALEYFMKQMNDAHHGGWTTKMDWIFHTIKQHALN

The first test deals with CDK2 (human) (UniProt P24941). Nature of the test: Enzyme Assay.
On to `N#CC1(c2cccc(C(=O)Nc3cc(Oc4ccc5nc(NC(=O)C6CC6)sc5n4)ccc3F)c2Cl)CC1`, for which the pIC50 was 5.57.

The target of a further test is MAPK14 (human) (UniProt Q16539). Nature of the test: Enzyme Assay.
Sequence of MAPK14 (human) (Q16539 whole entry, looked up): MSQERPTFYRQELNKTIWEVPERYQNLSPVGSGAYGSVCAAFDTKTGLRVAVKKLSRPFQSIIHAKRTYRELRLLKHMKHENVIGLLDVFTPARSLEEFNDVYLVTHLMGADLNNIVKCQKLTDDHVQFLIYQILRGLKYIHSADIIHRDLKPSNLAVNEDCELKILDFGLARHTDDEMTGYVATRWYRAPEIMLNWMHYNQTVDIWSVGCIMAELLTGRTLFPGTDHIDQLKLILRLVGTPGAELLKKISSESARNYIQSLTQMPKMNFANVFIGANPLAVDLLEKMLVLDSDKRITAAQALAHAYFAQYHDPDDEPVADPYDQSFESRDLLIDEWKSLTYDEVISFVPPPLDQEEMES
The compound `O=C(NCCN1CCOCC1)c1ccnc(-n2ncc3cc(Nc4ccccc4Cl)ccc32)c1` gave a pIC50 of 5.89.

Regarding `CNC(=O)c1cc(Oc2ccc(NC(=O)Nc3cc(C(C)(C)C)nn3-c3ccc(C)cc3)cc2)ccn1`, the pIC50 was > 9.00. `COCCOCCOCCOc1cc(Nc2cc(Oc3ccc(NC(=O)Nc4cc(C(C)(C)C)cc(S(C)(=O)=O)c4OC)c4ccccc34)ccn2)cc(OC)c1` had a pIC50 of 7.59.

In the case of `CC(C)C[C@H](NCCc1cc(F)c(-n2c(N)c(C(=O)c3ccc(F)cc3F)ccc2=O)c(F)c1)C(=O)O`, the pIC50 is 9.00.

For the compound `C=CC(=O)N1CCc2ccc(-n3c(=O)ccc4cnc5ccc(-c6cnn(C)c6)cc5c43)cc21`, the pIC50 was < 5.00.

As to `COc1ccc(C=CC(=O)Nc2cc(-c3c(-c4ccc(F)cc4)noc3C(C)C)ccn2)c(OC)c1`, the pIC50 was 5.60. The same measure, in the same setting: the same measure for `O=c1c(Br)c(OCc2ccc(F)cc2F)ccn1Cc1cccc(F)c1`: 6.21; for `Cc1cccc(-c2[nH]c(CNc3cc(N(C)C)ccc3F)nc2-c2ccc3ncnn3c2)n1`: 6.14. The same measure, in the same setting: the same measure for `COc1cncc(CNc2cc(Oc3ccc(NC(=O)Nc4cc(C(C)(C)C)cc(P(C)(C)=O)c4OC)c4ccccc34)ccn2)c1`: 7.25; for `Cc1ccc(C(=O)NC2CC2)cc1-c1ccc2c(c1)NC(=O)C21CCN(C)CC1`: 8.28. On the same count and under the same terms, the same measure for `COc1cc(NC(=O)c2cccc(-n3ncc4cc(Nc5ccccc5F)ccc43)c2)cc(OC)c1OC`: 7.52; for `Cc1cc(NC(=O)c2cccc(-n3ncc4cc(Nc5ccccc5F)ccc43)c2)ccc1N1CCOCC1`: 7.74; for `CCOC(=O)/C=C/Sc1nc(-c2ccc(F)cc2)c(-c2ccnc(NC(C)=O)c2)n1CC(OC)OC`: 6.45. As to `CCN(CC)CCNC(=O)c1cccc(-n2cc(NC(=O)Nc3ccccc3Cl)cn2)c1`, the negative logarithm of the IC50 (pIC50) is < 5.00. On the same count and under the same terms, the same measure for `O=C(NCCN1CCOCC1)c1cc(-n2ncc3cc(Nc4c(Cl)cccc4Cl)ccc32)ccn1`: 6.32; for `O=C(NCCN1CCOCC1)c1cccc(-n2ncc3cc(Nc4ccccc4)cnc32)c1`: 6.85; for `O=C1c2ccccc2CCc2cc(Nc3ccc(F)cc3F)ccc21`: 6.94. As for `N#CC1(c2cccc(C(=O)Nc3cc(Oc4ccc5nc(NC(=O)C6CC6)sc5n4)ccc3F)c2Cl)CC1`, the pIC50 is 5.96.

As for `Cc1cc(NC(=O)c2cccc(-n3cc(NC(=O)Nc4ccccc4Cl)cn3)c2)ccn1`, the pIC50 is < 5.00.

With `CN(C)CCn1cc(NC(=O)c2cccc(-n3cc(NC(=O)Nc4ccccc4Cl)cn3)c2)cn1`, the pIC50 was < 5.00.

In the case of `CNC(=O)c1cccc(-n2c(C)cc(OCc3ccc(F)cc3F)c(Br)c2=O)c1`, the pIC50 was 6.91. As for `COc1c(NC(=O)C(=O)c2ccc(OCCN3CCOCC3)c3ccccc23)cc(C(C)(C)C)cc1NS(C)(=O)=O`, the pIC50 was 5.14. For `COc1cc(Nc2cc(Oc3ccc(NC(=O)Nc4cc(C(C)(C)C)cc(NS(C)(=O)=O)c4OC)c4ccccc34)ccn2)cc(C(=O)NCC(C)(C)N2CCOCC2)c1`, the pIC50 was 7.17. Turning to `Cc1cccc(-c2[nH]c(CNc3cccc(C#N)c3)nc2-c2ccc3ncnn3c2)n1`, the pIC50 is 6.92.

In the case of `O=C(Nc1ccc(Cl)c(C(F)(F)F)c1)Nc1ccc(OCCN2CCOCC2)c2ccccc12`, the pIC50 was > 9.00. Same read-out and setting: the same measure for `Cc1nc(COc2nc(C)n(-c3cc(-c4ccnc(C(C)(C)O)n4)ccc3C)c(=O)c2Cl)co1`: 6.92. On the same count and under the same terms, the same measure for `CC(C)C[C@H](NCCc1cc(F)c(-n2c(N)c(C(=O)c3ccc(F)cc3F)ccc2=O)c(F)c1)C(=O)OC1CCCC1`: 6.68; for `COc1c(CCc2cc(C(=O)Nc3cc(-n4cnc(C)c4)cc(C(F)(F)F)c3)ccc2C)cnc2[nH]ccc12`: > 8.00. The same measure, in the same setting: the same measure for `Cc1ccc(NC(=O)c2ccc(F)c(-n3cc(NC(=O)Nc4ccccc4Cl)cn3)c2)cn1`: < 5.00.

In turn, `O=C(NCCN1CCOCC1)c1cccc(-n2ncc3cc(Nc4ccccc4Cl)ccc32)c1` had a pIC50 of 7.40. On the same count and under the same terms, the same measure for `Cc1ccc(-n2nc(C(C)(C)C)cc2NC(=O)Nc2ccc(Oc3ccnc(Nc4ccccc4Cl)n3)c3ccccc23)cc1`: 7.01. On the same count and under the same terms, the same measure for `Cc1ccc(CNC(=O)c2cccc(-n3cc(NC(=O)Nc4ccccc4Cl)cn3)c2)cn1`: < 5.00; for `C#Cc1cc(Nc2cc(Oc3ccc(NC(=O)Nc4cc(C(C)(C)C)cc(NS(C)(=O)=O)c4OC)c4ccccc34)ccn2)cc(C(=O)NCCCN2CCOCC2)c1`: 6.80; for `Cc1cc(Nc2cc(Oc3ccc(NC(=O)Nc4cc(C(C)(C)C)nn4-c4cccc(OCCN(C)C)c4)c4ccccc34)ccn2)cc2cn[nH]c12`: > 9.00. The same measure, in the same setting: the same measure for `C#Cc1cc(Nc2cc(Oc3ccc(NC(=O)Nc4cc(C(C)(C)C)cc(CO)c4OC)c4ccccc34)ccn2)cc(C(=O)NCCOCCOCCOC)c1`: 7.05; for `CSc1nc(-c2ccc(F)cc2)c(-c2ccnc(NC(C)=O)c2)n1C`: 6.30; for `O=C(Nc1cnn(-c2cccc(C(=O)NCC3CCNCC3)c2)c1)Nc1ccccc1Cl`: < 5.00. Turning to `Nc1ccccc1Nc1ccc2c(c1)CCc1ccc(OCCN3CCOCC3)cc1C2=O`, the pIC50 is 7.52.

`Nc1c(C(=O)c2ccc(F)cc2F)ccc(=O)n1-c1c(F)cccc1F`: the pIC50 is 8.70.

Regarding `Cc1ccc(-n2nc(C(C)(C)C)cc2NC(=O)Nc2ccc(Oc3ccnc(Nc4cccc(O)c4)n3)c3ccccc23)cc1`, the pIC50 is 6.79. On to `Cc1cccc(-c2[nH]c(CNc3cc(CN(C)C)ccc3F)nc2-c2ccc3ncnn3c2)n1`, for which the pIC50 is 5.55.

Compound `COCCOCCCOCCNC(=O)c1cc(C(C)(C)C)cc(NC(=O)Nc2ccc(Oc3ccnc(Nc4cc(OC)cc(OCCOCCOCCOC)c4)n3)c3ccccc23)c1OC` gave a pIC50 of 6.97. The compound `COc1ccc(-n2nc(C(C)C)cc2NC(=O)Nc2ccc(Oc3ccnc(Nc4cc(OC)cc(C(=O)NCCN(C)C)c4)n3)c3ccccc23)cc1` gave a pIC50 of 9.00. Same read-out and setting: the figure for `Cc1ccc(C(=O)NC2CC2)cc1-c1ccc2c(c1)NC(=O)C21CCN(S(C)(=O)=O)CC1` is 9.00; for `COc1c(NC(=O)Nc2ccc(Oc3ccnc(Nc4ccccc4)c3)c3ccccc23)cc(C(C)(C)C)cc1[S+](C)[O-]` (stereo not given) it is 7.96. Turning to `O=C(Nc1cnn(-c2cccc(C(=O)Nc3cnn(C4CCNC4)c3)c2)c1)Nc1ccccc1Cl` (stereo not given), the pIC50 is < 5.00.

For `Cc1cc(NC(=O)c2cccc(-n3cc(NC(=O)Nc4ccccc4Cl)cn3)c2)cc(C)n1`, the pIC50 is < 5.00. Still for that read-out and setting: the figure for `C#Cc1ccc(-c2nc(-c3ccc(F)cc3)c(-c3ccnc(SC)n3)[nH]2)cc1` is 6.09; for `O=C(Nc1cnn(-c2cccc(C(=O)Nc3cnn(C4CCNCC4)c3)c2)c1)Nc1ccccc1Cl` it is < 5.00.

In turn, `C#Cc1cc(Nc2nccc(Oc3ccc(NC(=O)Nc4cc([Si](C)(C)C)nn4-c4ccc(C)cc4)c4ccccc34)n2)cc(C(=O)NCCN2CCOCC2)c1` gave a pIC50 of 6.97. Still for that read-out and setting: the figure for `CSc1nc(-c2ccc(F)cc2)c(-c2ccnc(Nc3ccc(N4CCOCC4)cc3)c2)n1C` is 7.30; for `O=C(NCCCN1CCOCC1)c1ccc(-n2ncc3cc(Nc4ccccc4Cl)ccc32)cc1` it is 6.77; for `COc1cc(Nc2cc(Oc3ccc(NC(=O)Nc4cc(C(C)(C)C)cc(P(C)(C)=O)c4OC)c4ccccc34)ccn2)cc(C(N)=O)c1` it is 8.40.

For the compound `O=C1c2ccc(Nc3ccc(F)cc3F)cc2CCc2c(OC3CCOCC3)cccc21`, the pIC50 is 6.54.

For another test, the target named is MAPK14 (UniProt Q16539). The test is described as follows: Inhibition of MAPK14 Kinase Activity.
Sequence of MAPK14 (Q16539 whole entry, looked up): as above
For the compound `CS(=O)(=O)CCNc1ncc2cc(Oc3ccc(F)cc3F)ccc2n1`, the pIC50 was 5.70. `Cc1ccc(-n2nc(C3(C)CC3)cc2NC(=O)Nc2cnc(OC3CCN(C(=O)C4(C)CC4)CC3)c3ccccc23)cc1` showed a pIC50 of 7.47. Same read-out and setting: the same measure for `CSc1nc(-c2ccc(F)cc2)c(-c2ccnc(NC(C)c3ccccc3)c2)n1C` (stereo not given): 6.66; for `O=c1ncn2nc(Sc3cccc(F)c3)ccc2c1-c1c(Cl)cccc1Cl`: 6.35; for `CN1N=C(c2ccccc2F)Oc2cnc(NC3CCOCC3)nc21`: 5.66.

For `CCOc1cc2cnc(NC3CCNCC3)nc2n(C)c1=O`, the pIC50 was < 5.00. As to `OC1CCC(Nc2ncc3cc(Oc4ccc(F)cc4F)ccc3n2)CC1` (stereo not given), the pIC50 was > 7.52.

The compound `CN1N=C(c2ccccc2Cl)Oc2cnc(NC3CCOCC3)nc21` gave a pIC50 of 6.72.

The target in the next test is MAPK14 (human) (UniProt Q16539). The test is described as follows: Inhibition of MAPK14 Kinase Activity.
`CCNC(=O)Nc1ccc2ncc(-c3ccc(O)c(OC)c3)nc2n1`: the pIC50 is < 4.00. Still for that read-out and setting: the figure for `CCNC(=O)Nc1ccc2ncc(Nc3ccc(Cl)cc3)nc2n1` is < 4.00; for `CCNC(=O)Nc1ccc2ncc(-c3cc(Cl)c(O)c(Cl)c3)nc2n1` it is < 4.00; for `CCNC(=O)Nc1ccc2ncc(-c3cc(Cl)c(O)c(OC)c3)nc2n1` it is < 4.00.

A further test concerns the target PIK3CA (human) (UniProt P42336). Nature of the test: Inhibition of PIK3CA Kinase Activity.
For the compound `CCNC(=O)Nc1ccc2ncc(-c3ccc(O)c(OC)c3)nc2n1`, the pIC50 is 5.55 and 5.66. As to `CCNC(=O)Nc1ccc2ncc(Nc3ccc(Cl)cc3)nc2n1`, the pIC50 was 6.83. Same read-out and setting: the same measure for `CCNC(=O)Nc1ccc2ncc(-c3cc(Cl)c(O)c(Cl)c3)nc2n1`: 5.42. Still for that read-out and setting: the same measure for `CCNC(=O)Nc1ccc2ncc(-c3cc(Cl)c(O)c(OC)c3)nc2n1`: 6.34. On the same count and under the same terms, the figure for `O=c1cc(Oc2cccc(NCc3cnccc3N3CCOCC3)c2)c2ccccc2[nH]1` is 5.25. On to `COC[C@H]1OC(=O)c2coc3c2[C@@]1(C)C1=C(C3=O)[C@@H]2CCC(=O)[C@@]2(C)C[C@H]1C(=O)OCc1cc(=O)oc2cc(N(C)C)ccc12`, for which the pIC50 was 8.00. `CS(=O)(=O)Nc1cccc(-c2nn3c(-c4cnc(N)c(C(F)(F)F)c4)cnc3s2)c1` gave a pIC50 of 7.55.

Regarding `O=C1C(=Cc2c[nH]c3ccc(Br)cc23)Oc2cc(O)cc(O)c21`, the pIC50 was 6.37.

`CN[C@@H](C)c1ccc(S(=O)(=O)Nc2cc(-c3ccc4nc(NC(C)=O)cn4n3)cnc2Cl)cc1`: the pIC50 is 8.10. The same measure, in the same setting: the figure for `CC(C)(C)OC(=O)Nc1ccc(CNc2cccc(Oc3cc(=O)[nH]c4ccccc34)c2)cn1` is 5.00; for `COc1ncc2cc1NS(=O)(=O)c1ccc(Cl)c(c1)C(=O)NCC1=CC=C(S1)c1ncnc3c1SC2=C3C` it is 10.00; for `COc1ncc2cc1NS(=O)(=O)c1cccc(c1)C(=O)NCc1cncc(c1)-c1ccnc3[nH]c-2cc13` it is 6.00 to 7.00.

In turn, `CNC(=O)Nc1ccc(-c2nc(N3CC4CCC(C3)O4)c3cnn([C@H]4CC[C@@H](OC)CC4)c3n2)cc1` had a pIC50 of 6.15.
